{"source": "paper PMC8775721", "about": "“Pharmacological Dissection of the Crosstalk between NaV and CaV Channels in GH3b6 Cells” (International Journal of Molecular Sciences, 2022)", "biological_target": "T1, NaV1.3 (Rattus norvegicus, UniProt P08104)", "T1 construct": "gene Scn3a", "T1 sequence (P08104 whole entry)": "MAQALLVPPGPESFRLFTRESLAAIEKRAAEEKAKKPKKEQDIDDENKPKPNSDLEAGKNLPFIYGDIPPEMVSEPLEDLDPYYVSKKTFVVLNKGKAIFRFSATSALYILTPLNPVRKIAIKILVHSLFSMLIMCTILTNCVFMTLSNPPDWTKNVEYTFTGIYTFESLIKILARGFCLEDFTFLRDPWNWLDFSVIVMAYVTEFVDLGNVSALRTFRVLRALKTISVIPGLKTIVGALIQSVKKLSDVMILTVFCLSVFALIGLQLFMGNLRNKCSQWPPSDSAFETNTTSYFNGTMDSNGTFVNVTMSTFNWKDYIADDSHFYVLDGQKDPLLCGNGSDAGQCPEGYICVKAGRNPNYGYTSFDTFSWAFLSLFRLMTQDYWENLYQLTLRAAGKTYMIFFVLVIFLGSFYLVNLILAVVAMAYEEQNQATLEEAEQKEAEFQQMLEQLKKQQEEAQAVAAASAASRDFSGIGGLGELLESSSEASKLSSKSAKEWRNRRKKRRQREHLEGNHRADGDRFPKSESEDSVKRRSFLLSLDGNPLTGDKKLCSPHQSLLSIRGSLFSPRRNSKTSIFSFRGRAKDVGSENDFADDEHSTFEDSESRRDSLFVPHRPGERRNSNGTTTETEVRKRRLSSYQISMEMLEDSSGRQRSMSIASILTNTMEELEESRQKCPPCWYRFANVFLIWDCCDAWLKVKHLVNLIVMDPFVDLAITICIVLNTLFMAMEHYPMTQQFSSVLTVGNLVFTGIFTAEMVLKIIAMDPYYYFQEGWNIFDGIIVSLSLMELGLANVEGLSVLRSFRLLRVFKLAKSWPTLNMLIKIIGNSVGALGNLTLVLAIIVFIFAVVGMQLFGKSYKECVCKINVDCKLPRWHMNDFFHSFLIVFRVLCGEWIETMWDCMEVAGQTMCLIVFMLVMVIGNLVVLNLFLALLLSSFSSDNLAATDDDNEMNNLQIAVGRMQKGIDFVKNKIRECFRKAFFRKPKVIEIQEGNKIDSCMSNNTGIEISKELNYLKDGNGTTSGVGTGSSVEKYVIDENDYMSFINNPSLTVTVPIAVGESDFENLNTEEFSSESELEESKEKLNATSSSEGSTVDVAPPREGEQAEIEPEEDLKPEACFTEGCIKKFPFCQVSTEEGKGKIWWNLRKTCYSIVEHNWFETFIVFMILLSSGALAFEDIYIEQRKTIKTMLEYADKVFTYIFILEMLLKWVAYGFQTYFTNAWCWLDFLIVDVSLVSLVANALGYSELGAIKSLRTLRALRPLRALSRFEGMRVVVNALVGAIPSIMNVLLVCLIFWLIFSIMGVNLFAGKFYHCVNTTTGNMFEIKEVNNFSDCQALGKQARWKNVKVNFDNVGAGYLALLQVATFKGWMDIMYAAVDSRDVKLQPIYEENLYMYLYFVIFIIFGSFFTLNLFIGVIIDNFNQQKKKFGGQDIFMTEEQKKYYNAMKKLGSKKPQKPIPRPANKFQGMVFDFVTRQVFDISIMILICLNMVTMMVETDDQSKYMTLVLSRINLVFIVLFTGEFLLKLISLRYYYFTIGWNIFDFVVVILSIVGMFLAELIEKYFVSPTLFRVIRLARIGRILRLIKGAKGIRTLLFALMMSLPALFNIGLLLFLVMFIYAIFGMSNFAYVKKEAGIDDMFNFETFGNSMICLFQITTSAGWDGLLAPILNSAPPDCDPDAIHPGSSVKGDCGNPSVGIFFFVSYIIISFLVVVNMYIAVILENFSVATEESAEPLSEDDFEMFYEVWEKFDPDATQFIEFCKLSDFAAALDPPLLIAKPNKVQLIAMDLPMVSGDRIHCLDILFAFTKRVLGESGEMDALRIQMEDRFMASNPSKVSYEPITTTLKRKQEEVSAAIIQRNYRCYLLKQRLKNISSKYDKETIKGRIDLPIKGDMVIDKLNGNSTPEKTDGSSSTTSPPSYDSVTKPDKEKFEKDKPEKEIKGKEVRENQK", "experiment": "manual whole-cell patch-clamp of endogenous INa in GH3b6 cells", "assay_type": "cell-based", "settings": "read-out: % reduction of INa amplitude at 1 μM"}
{"smiles": "O=C(Nc1ccc(S(=O)(=O)Nc2nccs2)cc1)C(c1ccccc1)c1ccccc1", "note": "[ICA-121431]", "values": [{"measurement": "inhibition at 1 µM", "value": 50, "unit": "%"}]}
